Results reported in ChEMBL document CHEMBL3885861, “Open TG-GATES”.

Species on record: Rattus norvegicus
Assay: Open TG-GATES - Regimen: Single
Type: toxicity, organism-based, Sprague-Dawley
Design: regimen Single, gender Male, age 6 weeks
Conditions: in vivo, ip, 40 mg/kg, route intraperitoneal injection, dose level Low; for APTT / Bas / Eos / Fbg / Hb / Ht / Lym / MCH / MCHC / MCV / Mono / Neu / PT / Plat / RBC / Ret / WBC: tissue Blood; for KIDNEY_L / KIDNEY_R / KIDNEY_TOTAL: tissue Kidney; for LIVER: tissue Liver; for A/G / ALP / ALT / AST / BUN / CRE / Ca / Cl / DBIL / GLC / IP / K / LDH / Na / PL / RALB / TBIL / TC / TG / TP / gamma-GTP: tissue Plasma

CC(C)=CC(=O)C=C(C)C [PHORONE]
TERMINAL_BW (3 h): 219.9 g | APTT (3 h): 16.7 s | Bas (3 h): 0% | Eos (3 h): 0.8% | Fbg (3 h): 211 mg/dL | Hb (3 h): 13.1 g/dL | Ht (3 h): 39.1% | Lym (3 h): 69.8% | MCH (3 h): 21.6 pg | MCHC (3 h): 33.5% | MCV (3 h): 64.4 fL | Mono (3 h): 8.4% | Neu (3 h): 21.2% | PT (3 h): 12.2 s | Plat (3 h): 112.1 x10_4/uL | RBC (3 h): 608 x10_4/ul | Ret (3 h): 9.2% | WBC (3 h): 105.8 x10_2/uL | KIDNEY_L (3 h): 1 g | KIDNEY_R (3 h): 1 g | KIDNEY_TOTAL (3 h): 2 g | LIVER (3 h): 10.5 g | A/G (3 h): 2.3 | ALP (3 h): 735.6 IU/L | ALT (3 h): 36.4 IU/L | AST (3 h): 78.6 IU/L | BUN (3 h): 14.8 mg/dL | CRE (3 h): 0.6 mg/dL | Ca (3 h): 10.6 mg/dL | Cl (3 h): 106 meq/L | DBIL (3 h): 0.034 mg/dL | GLC (3 h): 193.6 mg/dL | IP (3 h): 10.3 mg/dL | K (3 h): 4.8 meq/L | LDH (3 h): 83.8 IU/L | Na (3 h): 139 meq/L | PL (3 h): 133.6 mg/dL | RALB (3 h): 3.6 g/dL | TBIL (3 h): 0.4 mg/dL | TC (3 h): 75.4 mg/dL | TG (3 h): 46 mg/dL | TP (3 h): 5.2 g/dL | gamma-GTP (3 h): 2.4 IU/L | TERMINAL_BW (6 h): 219.1 g | APTT (6 h): 17.2 s | Bas (6 h): 0% | Eos (6 h): 0.6% | Fbg (6 h): 216.8 mg/dL | Hb (6 h): 13.5 g/dL | Ht (6 h): 40.3% | Lym (6 h): 66.2% | MCH (6 h): 21.6 pg | MCHC (6 h): 33.4% | MCV (6 h): 64.8 fL | Mono (6 h): 6.6% | Neu (6 h): 26.8% | PT (6 h): 12.3 s | Plat (6 h): 114.9 x10_4/uL | RBC (6 h): 621.6 x10_4/ul | Ret (6 h): 9% | WBC (6 h): 90 x10_2/uL | KIDNEY_L (6 h): 1 g | KIDNEY_R (6 h): 1 g | KIDNEY_TOTAL (6 h): 2.1 g | LIVER (6 h): 9.8 g | A/G (6 h): 2.2 | ALP (6 h): 814.6 IU/L | ALT (6 h): 36.2 IU/L | AST (6 h): 70.8 IU/L | BUN (6 h): 13.8 mg/dL | CRE (6 h): 0.5 mg/dL | Ca (6 h): 10.8 mg/dL | Cl (6 h): 105 meq/L | DBIL (6 h): 0.048 mg/dL | GLC (6 h): 193.4 mg/dL | IP (6 h): 10.1 mg/dL | K (6 h): 4.9 meq/L | LDH (6 h): 76 IU/L | Na (6 h): 138.2 meq/L | PL (6 h): 126.4 mg/dL | RALB (6 h): 3.6 g/dL | TBIL (6 h): 0.5 mg/dL | TC (6 h): 72.2 mg/dL | TG (6 h): 36.6 mg/dL | TP (6 h): 5.3 g/dL | gamma-GTP (6 h): 1.6 IU/L | TERMINAL_BW (9 h): 220.4 g | APTT (9 h): 17.1 s | Bas (9 h): 0% | Eos (9 h): 1% | Fbg (9 h): 246.6 mg/dL | Hb (9 h): 13.2 g/dL | Ht (9 h): 39.8% | Lym (9 h): 63.8% | MCH (9 h): 21.8 pg | MCHC (9 h): 33.3% | MCV (9 h): 65.5 fL | Mono (9 h): 8.6% | Neu (9 h): 26.6% | PT (9 h): 12.1 s | Plat (9 h): 115.4 x10_4/uL | RBC (9 h): 609 x10_4/ul | Ret (9 h): 9.4% | WBC (9 h): 96.2 x10_2/uL | KIDNEY_L (9 h): 1 g | KIDNEY_R (9 h): 1 g | KIDNEY_TOTAL (9 h): 2 g | LIVER (9 h): 9.5 g | A/G (9 h): 2 | ALP (9 h): 839.8 IU/L | ALT (9 h): 33.2 IU/L | AST (9 h): 69 IU/L | BUN (9 h): 13.8 mg/dL | CRE (9 h): 0.5 mg/dL | Ca (9 h): 10.8 mg/dL | Cl (9 h): 106.6 meq/L | DBIL (9 h): 0.04 mg/dL | GLC (9 h): 204.2 mg/dL | IP (9 h): 10 mg/dL | K (9 h): 4.7 meq/L | LDH (9 h): 91.4 IU/L | Na (9 h): 138.8 meq/L | PL (9 h): 131.8 mg/dL | RALB (9 h): 3.6 g/dL | TBIL (9 h): 0.4 mg/dL | TC (9 h): 77.6 mg/dL | TG (9 h): 54 mg/dL | TP (9 h): 5.4 g/dL | gamma-GTP (9 h): 1.8 IU/L | TERMINAL_BW (24 h): 231.5 g | APTT (24 h): 16.9 s | Bas (24 h): 0% | Eos (24 h): 0.8% | Fbg (24 h): 231.2 mg/dL | Hb (24 h): 12.9 g/dL | Ht (24 h): 38.5% | Lym (24 h): 77.8% | MCH (24 h): 22 pg | MCHC (24 h): 33.6% | MCV (24 h): 65.4 fL | Mono (24 h): 5.6% | Neu (24 h): 16% | PT (24 h): 11.5 s | Plat (24 h): 113 x10_4/uL | RBC (24 h): 589.8 x10_4/ul | Ret (24 h): 8.8% | WBC (24 h): 87.7 x10_2/uL | KIDNEY_L (24 h): 1 g | KIDNEY_R (24 h): 1 g | KIDNEY_TOTAL (24 h): 2 g | LIVER (24 h): 11.8 g | A/G (24 h): 2 | ALP (24 h): 774.8 IU/L | ALT (24 h): 34 IU/L | AST (24 h): 65 IU/L | BUN (24 h): 19.2 mg/dL | CRE (24 h): 0.5 mg/dL | Ca (24 h): 11 mg/dL | Cl (24 h): 104.4 meq/L | DBIL (24 h): 0.028 mg/dL | GLC (24 h): 197.2 mg/dL | IP (24 h): 8.3 mg/dL | K (24 h): 4.7 meq/L | LDH (24 h): 87.6 IU/L | Na (24 h): 139 meq/L | PL (24 h): 156 mg/dL | RALB (24 h): 3.8 g/dL | TBIL (24 h): 0.4 mg/dL | TC (24 h): 81.8 mg/dL | TG (24 h): 118.2 mg/dL | TP (24 h): 5.7 g/dL | gamma-GTP (24 h): 0.6 IU/L
